US12338219B2, “Antimalarial agents” (Merck Sharp & Dohme LLC, priority 2019, dated 2025)

The molecules below were run on parasites (ring stage parasites, parasite growth) (assay: Parasite LDH growth assay (Parasite Assay), antiparasite potency). Conditions: 72 h, 72 hours growth, LDH readout; Table 3.
Format: cell-based
Protocol: Assessing Antiparasite Potency in a Parasite LDH Growth Assay (Parasite Assay) The parasite stock was maintained at […] in RPMI-Hepes media buffered with sodium bicarbonate and supplemented with […]. […] On the day of assay set up, a blood smear of the parasite culture was Giemsa stained and counted. The parasitemia was adjusted to 0.7% rings and the haematocrit was diluted to 2% in RPMI-Hepes media buffered with sodium bicarbonate and supplemented with 500 heat inactivated human serum and 0.5% albumax. 30 ul of diluted parasites are then added into 10 ul of media+compound in pre-prepared Greiner TC assay plates. Parasite assay plates were placed in gassed humidified boxes in single layer and allowed to incubate at 37° C. for 72 hours. After 72 hours growth, assay plates are sealed with parafilm and frozen flat, in single file at −80° C. overnight. On the following day, assay plates are allowed to thaw at room temperature for 4 hours to which an LDH assay is performed to measure parasite growth.

| SMILES | EC50 |
| --- | --- |
| COCC[C@H]([C@@H]1C[C@H]1C(=O)N[C@H]1CC(C)(C)Oc2ccc(Cl)cc21)N1C(=N)NC(C)(C)CC1=O [Example 101] | 2.9 nM |
| CC1(C)CC(=O)N([C@H](c2ccc(C#N)cc2)[C@@H]2C[C@H]2C(=O)N[C@H]2C[C@H](C(F)(F)F)Oc3ccccc32)C(=N)N1 [Example 47B] | 0.9 nM |
| COCC[C@H]([C@@H]1C[C@H]1C(=O)N[C@@H]1CC(C)(C)Oc2cccc(OC(F)(F)F)c21)N1C(=N)NC(C)(C)CC1=O [Example 107B] | 11 nM |
| CC1(C)CC(=O)N(C[C@@H]2C[C@H]2C(=O)N[C@H]2CC(C)(C)Oc3cc(Cl)ccc32)C(=N)N1 [Example 90] | 225 nM |
| COCC[C@H]([C@@H]1C[C@H]1C(=O)N[C@H]1CC(C)(C)Oc2cccc(OC)c21)N1C(=N)NC(C)(C)CC1=O [Example 74B] | 3.1 nM |
| CC[C@]1(C)CC(=O)N([C@H](CCOC)[C@@H]2C[C@H]2C(=O)N[C@H]2CC(C)(C)Oc3ccc(Cl)cc32)C(=N)N1 [Example 124] | 0.8 nM |
| CCC1(CC)CC(=O)N(C[C@H]2C[C@@H]2C(=O)N[C@@H](C)c2ccccc2)C(=N)N1 [Example 3A] | 234 nM |
| CC1(C)CC(=O)N(C[C@@H]2C[C@H]2C(=O)N[C@H]2CC(C)(C)Oc3ccc(Cl)cc32)C(=N)N1 [Example 95] | 110 nM |
| CCC1(CC)CC(=O)N([C@H](c2cccnc2)[C@@H]2C[C@H]2C(=O)N[C@H]2CCOc3ccccc32)C(=N)N1 [Example 9] | 6.9 nM |
| CCC1(CC)CC(=O)N([C@H](CCOC)[C@@H]2C[C@H]2C(=O)N[C@@H]2c3ccccc3C[C@H]2O)C(=N)N1 [Example 13] | 24 nM |
| COCC[C@H]([C@@H]1C[C@H]1C(=O)NC1CC(C)(C)Oc2ccccc21)N1C(=N)NC(C)(C)CC1=O (stereo partly drawn) [Example 23A] | 16 nM |
| CC1(C)CC(=O)N([C@H](c2cccnc2)[C@@H]2C[C@H]2C(=O)NC2CC(C)(C)Oc3cc(F)ccc32)C(=N)N1 (stereo partly drawn) [Example 77A] | 1.7 nM |
| CCC1(CC)CC(=O)N(C[C@@H]2C(C)[C@H]2C(=O)N[C@@H]2c3ccccc3C[C@H]2O)C(=N)N1 (stereo partly drawn) [Example 33] | 76 nM |
| COc1cncc([C@H]([C@@H]2C[C@H]2C(=O)N[C@H]2C[C@H](C(F)(F)F)Oc3ccccc32)N2C(=N)NC(C)(C)CC2=O)c1 [Example 41] | 1.1 nM |
| COCC[C@H]([C@@H]1C[C@H]1C(=O)N[C@@H]1CC(C)(C)Oc2c(C(F)(F)F)ccc(F)c21)N1C(=N)NC(C)(C)CC1=O [Example 114A] | 89 nM |
| COCC[C@H]([C@@H]1C[C@H]1C(=O)N[C@@H]1CC(C)(C)Oc2ccc(F)cc21)N1C(=N)NC(C)(C)CC1=O [Example 72A] | 11 nM |
| CCC1(CC)CC(=O)N([C@@H](c2cccnc2)[C@@H]2C(C)[C@H]2C(=O)N[C@H]2C[C@H](C(F)(F)F)Oc3ccccc32)C(=N)N1 (stereo partly drawn) [Example 55B] | 180 nM |

| SMILES | EC50 |
| --- | --- |
| COc1ccc([C@H]([C@@H]2C[C@H]2C(=O)N[C@@H]2c3ccccc3OC(C)(C)[C@H]2O)N2C(=N)NC(C)(C)CC2=O)cn1 [Example 39] | 10.1 nM |
| COCC[C@H]([C@@H]1C[C@H]1C(=O)N[C@@H]1CC(C)(C)Oc2cc(C)c(C)cc21)N1C(=N)NC(C)(C)CC1=O [Example 138B] | 18 nM |
| CCC1(CC)CC(=O)N(C[C@@H]2C[C@H]2C(=O)N[C@H]2CC(C)(C)Oc3ccc(F)cc32)C(=N)N1 [Example 7A] | 135 nM |
| CCC1(CC)CC(=O)N([C@@H](c2cccnc2)[C@H]2[C@H](C(=O)N[C@H]3CC(C)(C)Oc4ccccc43)C2(C)C)C(=N)N1 [Example 48B] | 7.4 nM |
| CC1(C)CC(=O)N([C@H](c2cccnc2)[C@@H]2C[C@H]2C(=O)NC2CC(C)(C)Oc3c(F)cccc32)C(=N)N1 (stereo partly drawn) [Example 93A] | 3.3 nM |
| COc1ccc([C@H]([C@@H]2C[C@H]2C(=O)N[C@H]2CC(C)(C)Oc3ccccc32)N2C(=N)NC(C)(C)CC2=O)cn1 [Example 38] | 6.5 nM |
| COCC[C@H]([C@@H]1C[C@H]1C(=O)N[C@H]1CC(C)(C)Oc2ccc(C(F)(F)F)cc21)N1C(=N)NC(C)(C)CC1=O [Example 110B] | 7.2 nM |
| COCC[C@H]([C@@H]1C[C@H]1C(=O)N[C@H]1CC(C)(C)Oc2cc(OC(F)(F)F)ccc21)N1C(=N)NC(C)(C)CC1=O [Example 134B] | 25 nM |
| COc1ccc([C@H]([C@@H]2C[C@H]2C(=O)N[C@H]2C[C@H](C(F)(F)F)Oc3ccccc32)N2C(=N)NC(C)(C)CC2=O)cn1 [Example 37] | 1.2 nM |
| CC1(C)CC(=O)N([C@H](c2cncc(Cl)c2)[C@@H]2C[C@H]2C(=O)N[C@H]2CC(C)(C)Oc3ccccc32)C(=N)N1 [Example 58B] | 1 nM |
| CC1(C)CC(=O)N([C@@H](c2ccc(C#N)cc2)[C@@H]2C[C@H]2C(=O)N[C@H]2CC(C)(C)Oc3ccccc32)C(=N)N1 [Example 45B] | 220 nM |
| CC1(C)CC(=O)N([C@H](c2cccnc2)[C@@H]2C[C@H]2C(=O)N[C@@H]2CC(C)(C)Oc3cc(Cl)ccc32)C(=N)N1 [Example 91B] | 2.7 nM |
| CC1(C)CC(=O)N([C@@H](c2cccnc2)[C@H]2[C@H](C(=O)N[C@H]3C[C@H](C(F)(F)F)Oc4ccccc43)C2(C)C)C(=N)N1 [Example 43B] | 37 nM |
| CC1(C)CC(=O)N(C[C@@H]2C[C@H]2C(=O)N[C@H]2CC(C3CC3)Oc3ccccc32)C(=N)N1 (stereo partly drawn) [Example 140A] | 220 nM |
| COCC[C@H]([C@@H]1C[C@H]1C(=O)N[C@H]1CC(C)(C)Oc2cc(Cl)ccc21)N1C(=N)NC(C)(C)CC1=O [Example 89A] | 5.6 nM |
| CC1(C)CC(=O)N([C@H](c2cccnc2)[C@@H]2C[C@H]2C(=O)NC2CC(C)(C)Oc3cccc(F)c32)C(=N)N1 (stereo partly drawn) [Example 86A] | 2.2 nM |

Same assay, conditions: 72 h, 72 hours growth, LDH readout; Table 4 (unit inferred)

| SMILES | EC50 |
| --- | --- |
| CCC1(CC)CC(=O)N([C@H](CCOC)[C@@H]2C[C@H]2C(=O)N[C@@H]2c3ccccc3OC(C)(C)[C@H]2O)C(=N)N1 [Example 145] | 8.4 nM |
| CCC1(CC)CC(=O)N([C@H](CCOC)[C@@H]2C[C@H]2C(=O)N[C@@H]2CC(C)(C)Oc3ccccc32)C(=N)N1 [Example 141] | 4.7 nM |

Same assay, conditions: 72 hours growth, LDH readout; Table 3

| SMILES | EC50 |
| --- | --- |
| COCC[C@H]([C@@H]1C[C@H]1C(=O)NC1CC(C)(COC)Oc2ccccc21)N1C(=N)NC(C)(C)CC1=O (single isomer, unassigned) [Example 82A] | 24.4 nM |
| CCC1(C)CC(NC(=O)[C@@H]2C[C@H]2[C@@H](CCOC)N2C(=N)NC(C)(C)CC2=O)c2ccccc2O1 (single isomer, unassigned) [Example 75B] | 7.5 nM |
| CC1(C)CC(=O)N([C@H](c2cccnc2)[C@@H]2C[C@H]2C(=O)NC2CC(C)(C)Oc3ccc(C(F)(F)F)cc32)C(=N)N1 (single isomer, unassigned) [Example 109A] | 2.3 nM |
| COCC[C@H]([C@@H]1C[C@H]1C(=O)NC1CC(C)(COC)Oc2ccccc21)N1C(=N)NC(C)(C)CC1=O (single isomer, unassigned) [Example 82C] | 53 nM |
| CCC1(C)CC(NC(=O)[C@@H]2C[C@H]2[C@@H](c2cccnc2)N2C(=N)NC(C)(C)CC2=O)c2ccccc2O1 (single isomer, unassigned) [Example 105B] | 1.8 nM |
| CC1(C)CC(=O)N([C@H](c2cccnc2)[C@@H]2C[C@H]2C(=O)NC2CC(C)(C)Oc3cc(F)ccc32)C(=N)N1 (stereo partly drawn) [Example 77B] | 2.3 nM |
| COCC[C@H]([C@@H]1C[C@H]1C(=O)N[C@@H]1C[C@@H](C(F)(F)F)Oc2ccccc21)N1C(=N)NC(C)(C)CC1=O [Example 24C] | 120 nM |
| COCC[C@H]([C@@H]1C[C@H]1C(=O)NC1CC(C)(C)Oc2c(Cl)cc(Cl)cc21)N1C(=N)NC(C)(C)CC1=O (stereo partly drawn) [Example 106B] | 10 nM |
| CC1(C)CC(=O)N([C@H](c2cccnc2)[C@@H]2C[C@H]2C(=O)NC2CC(C)(C)Oc3ccc(F)cc32)C(=N)N1 (single isomer, unassigned) [Example 98B] | 2.2 nM |
| COCC[C@H]([C@@H]1C[C@H]1C(=O)NC1CC(C)(C)Oc2c(F)cccc21)N1C(=N)NC(C)(C)CC1=O (stereo partly drawn) [Example 111B] | 15 nM |
| COCC[C@H]([C@@H]1C[C@H]1C(=O)N[C@@H]1C[C@@H](C(F)(F)F)Oc2ccccc21)N1C(=N)NC(C)(C)CC1=O [Example 24A] | 3.4 nM |
| CCC1(CC)CC(NC(=O)[C@@H]2C[C@H]2[C@@H](CCOC)N2C(=N)NC(C)(C)CC2=O)c2ccccc2O1 (stereo partly drawn) [Example 92B] | 7.2 nM |
| CC1(C)CC(=O)N(C[C@@H]2C[C@H]2C(=O)N[C@H]2CC(C3CC3)Oc3ccccc32)C(=N)N1 (stereo partly drawn) [Example 140B] | 280 nM |

Same assay, conditions: 72 hours growth, LDH readout; Table 4 (unit inferred)

| SMILES | EC50 |
| --- | --- |
| CCC1(CC)CC(=O)N(C(CC(C)OC)[C@@H]2C[C@H]2C(=O)N[C@H]2CC(C)(C)Oc3ccccc32)C(=N)N1 (single isomer, unassigned) [Example 142D] | 115 nM |
| CCC1(CC)CC(=O)N(C(CC(C)OC)[C@@H]2C[C@H]2C(=O)N[C@@H]2CC(C)(C)Oc3ccccc32)C(=N)N1 (single isomer, unassigned) [Example 143C] | 57.9 nM |
| CCC1(CC)CC(=O)N(C(CC(C)OC)[C@@H]2C[C@H]2C(=O)N[C@@H]2CC(C)(C)Oc3ccccc32)C(=N)N1 (single isomer, unassigned) [Example 143B] | 2.4 nM |
| CCC1(CC)CC(=O)N(C(CC(C)OC)[C@@H]2C[C@H]2C(=O)N[C@H]2CC(C)(C)Oc3ccccc32)C(=N)N1 (single isomer, unassigned) [Example 142B] | 0.7 nM |
| CCC1(CC)CC(=O)N([C@H](CCOC)[C@@H]2C[C@H]2C(=O)NC2CC(C)(C)Oc3c(Cl)cccc32)C(=N)N1 (stereo partly drawn) [Example 148B] | 1.9 nM |
| CCC1(CC)CC(=O)N([C@H](CCOC)[C@@H]2C[C@H]2C(=O)NC2CC(C)(C)Oc3cc(Cl)ccc32)C(=N)N1 (single isomer, unassigned) [Example 147A] | 2.8 nM |
